ChEMBL document CHEMBL1137519, “Elucidation of the RNA target of linezolid by using a linezolid-neomycin B heteroconjugate and genomic SELEX” (Bioorg Med Chem, 2007)

Legend:
[1] = Binding affinity to Escherichia coli K12 stem-loop region L2-10 RNA aptamers using luminescence spectrometer by anisotropy technique
[2] = Binding affinity to Escherichia coli K12 stem-loop region L2-11 RNA aptamers using luminescence spectrometer by anisotropy technique
[3] = Binding affinity to Escherichia coli K12 stem-loop region L2-12 RNA aptamers using luminescence spectrometer by anisotropy technique
[4] = Binding affinity to Escherichia coli K12 stem-loop region L2-12 RNA aptamers using BIAcore 3000 instrument
[5] = Binding affinity to Escherichia coli K12 stem-loop region L2-11 RNA aptamers using BIAcore 3000 instrument

Row | SMILES | Kd [1] | Kd [2] | Kd [3] | Kd [4] | Kd [5]
1 | NC[C@@H]1O[C@H](O[C@H]2[C@@H](O)[C@H](O[C@@H]3[C@@H](O)[C@H](N)C[C@H](N)[C@H]3O[C@H]3O[C@H](CN)[C@@H](O)[C@H](O)[C@H]3N)O[C@@H]2CO)[C@H](N)[C@@H](O)[C@@H]1O (stereo in doubt) [FRAMYCETIN] | 308 nM | 313 nM | 320 nM | 2300 nM | 6300 nM
2 | CC(=O)NC[C@@H]1CN(c2ccc(N3CCN(C(=O)CSCCCCCCSC[C@@H]4O[C@H](O[C@@H]5[C@@H](O)[C@H](N)C[C@H](N)[C@H]5O[C@H]5O[C@H](CN)[C@@H](O)[C@H](O)[C@H]5N)[C@@H](O)[C@H]4O[C@@H]4O[C@H](CN)[C@H](O)[C@@H](O)[C@@H]4N)CC3)c(F)c2)C(=O)O1 | 90 nM | 260 nM | 66 nM | 670 nM | 960 nM
